Measurements taken from ChEMBL document CHEMBL6177995, “In Silico Discovery of Novel Potent Trace Amine-Associated Receptor TAAR1 Agonists as Promising Drug Candidates for the Treatment of Schizophrenia” (J Med Chem, 2025).
Each block holds one compound with its values, some of them ahead of it.

Legend:
[1] = biological target: T1, Trace amine-associated receptor 1 (Homo sapiens, UniProt Q96RJ0); assay: Agonist activity at TAAR1 (unknown origin) transfected in HEK293 cells co-transfected with GalphaS-Nluc, Gbeta1/3 and Ggamma1/2/9-mVenus assessed as GalphaS-Gbeta/gamma dissociation by BRET assay; format: functional, cell-based
T1 sequence (Q96RJ0 whole entry): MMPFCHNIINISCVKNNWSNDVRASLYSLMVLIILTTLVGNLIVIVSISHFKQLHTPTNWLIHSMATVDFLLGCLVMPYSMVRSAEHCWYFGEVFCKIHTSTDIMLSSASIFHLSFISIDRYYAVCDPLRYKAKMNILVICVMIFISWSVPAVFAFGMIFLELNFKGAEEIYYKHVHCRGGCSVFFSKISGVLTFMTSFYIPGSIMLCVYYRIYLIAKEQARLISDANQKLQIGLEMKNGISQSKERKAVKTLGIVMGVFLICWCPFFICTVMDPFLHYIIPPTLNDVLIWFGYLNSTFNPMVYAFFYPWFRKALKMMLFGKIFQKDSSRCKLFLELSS

[2] = biological target: T1, Trace amine-associated receptor 1; assay: Agonist activity at TAAR1 (unknown origin) transfected in HEK293 cells co-transfected with Galphaq-Nluc, Gbeta1/3 and Ggamma1/2/9-mVenus assessed as Galphaq-Gbeta/gamma dissociation by BRET assay; format: functional, cell-based
[3] = Subacute toxicity in Kunming mouse assessed as animal death at 50 mg/kg, po administered every two days for 14 days; format: organism-based; conditions: in vivo, 336 h, time 14 day
[4] = Clearance in Sprague-Dawley rat at 2 mg/kg, iv measured after 8 hrs by LC-MS/MS analysis; format: ADME, organism-based; conditions: in vivo
[5] = Acute toxicity in Kunming mouse assessed as effect on heart co-efficient at 1000 mg/kg, po administered as single dose and measured after 7 days; format: organism-based; conditions: in vivo, 168 h, time 7 day
[6] = Subacute toxicity in Kunming mouse assessed as effect on kidney coefficient at 50 mg/kg, po administered every two days for 14 days; format: organism-based; conditions: in vivo, 336 h, time 14 day
[7] = Subacute toxicity in Kunming mouse assessed as pathological changes in lung at 50 mg/kg, po administered every two days for 14 days by H and E staining based analysis; format: organism-based; conditions: in vivo, 336 h, time 14 day
[8] = Acute toxicity in Kunming mouse assessed as effect on body weight at 1000 mg/kg, po administered as single dose and measured after 7 days; format: organism-based; conditions: in vivo, 168 h, time 7 day
[9] = Cmax in Sprague-Dawley rat at 2 mg/kg, iv measured after 8 hrs by LC-MS/MS analysis; format: ADME, organism-based; conditions: in vivo
[10] = Tmax in Sprague-Dawley rat at 10 mg/kg, po measured after 8 hrs by LC-MS/MS analysis; format: ADME, organism-based; conditions: in vivo
[11] = AUC (0 to t) in Sprague-Dawley rat at 2 mg/kg, iv measured after 8 hrs by LC-MS/MS analysis; format: ADME, organism-based; conditions: in vivo
[12] = AUC (0 to infinity) in Sprague-Dawley rat at 2 mg/kg, iv measured after 8 hrs by LC-MS/MS analysis; format: ADME, organism-based; conditions: in vivo
[13] = Metabolic stability in human liver microsomes assessed as intrinsic clearance preincubated for 60 mins followed by NADPH addition and measured after 60 mins by LC-MS/MS analysis; format: ADME, Microsome; conditions: time 120 min, read-out: CLH
Mus musculus [14] = assay: Antipsychotic activity in MK-801 induced male C57BL/6J mouse model assessed as improvement in recognition deficit performance by measuring discrimination index at 3 mg/kg, po pre-administered with MK-801 as twice daily days for 7 days followed by 1 week of washout period and measured after 1 hrs of compound administration by novel object recognition test (reference value: 0.37); format: functional
[15] = Subacute toxicity in Kunming mouse assessed as pathological changes in spleen at 50 mg/kg, po administered every two days for 14 days by H and E staining based analysis; format: organism-based; conditions: in vivo, 336 h, time 14 day
[16] = Subacute toxicity in Kunming mouse assessed as effect on heart coefficient at 50 mg/kg, po administered every two days for 14 days; format: organism-based; conditions: in vivo, 336 h, time 14 day
[17] = Aqueous solubility of compound at pH 7.4; format: physicochemical; conditions: aqueous solution
[18] = biological target: T2, Trace amine-associated receptor 1 (Homo sapiens) (UniProt Q96RJ0); assay: Potency index, ratio of SEP-363856 EC50 to test compound EC50 for agonist activity at TAAR1 (unknown origin) transfected in HEK293 cells co-transfected with GalphaS-Nluc, Gbeta1/3 and Ggamma1/2/9-mVenus assessed as GalphaS-Gbeta/gamma dissociation by BRET assay; format: functional, cell-based; conditions: filed as agonist
T2 sequence (whole entry): T1 sequence (Q96RJ0 whole entry)

[19] = Oral bioavailability in Sprague-Dawley rat at 10 mg/kg measured after 8 hrs by LC-MS/MS analysis; format: ADME, organism-based; conditions: in vivo
[20] = Half-life in Sprague-Dawley rat at 10 mg/kg, po measured after 8 hrs by LC-MS/MS analysis; format: ADME, organism-based; conditions: in vivo
[21] = Subacute toxicity in Kunming mouse assessed as effect on lung coefficient at 50 mg/kg, po administered every two days for 14 days; format: organism-based; conditions: in vivo, 336 h, time 14 day
[22] = Acute toxicity in Kunming mouse assessed as animal death at 1000 mg/kg, po administered as single dose and measured after 7 days; format: organism-based; conditions: in vivo, 168 h, time 7 day
[23] = AUC (0 to t) in Sprague-Dawley rat at 10 mg/kg, po measured after 8 hrs by LC-MS/MS analysis; format: ADME, organism-based; conditions: in vivo
[24] = Cmax in Sprague-Dawley rat at 10 mg/kg, po measured after 8 hrs by LC-MS/MS analysis; format: ADME, organism-based; conditions: in vivo
[25] = Subacute toxicity in Kunming mouse assessed as abnormalities at 50 mg/kg, po administered every two days for 14 days; format: organism-based; conditions: in vivo, 336 h, time 14 day
[26] = Subacute toxicity in Kunming mouse assessed as effect on body weight at 50 mg/kg, po administered every two days for 14 days; format: organism-based; conditions: in vivo, 336 h, time 14 day
[27] = Acute toxicity in Kunming mouse assessed as effect on kidney co-efficient at 1000 mg/kg, po administered as single dose and measured after 7 days; format: organism-based; conditions: in vivo, 168 h, time 7 day
[28] = Toxicity in male C57BL/6J mouse assessed as effect on locomotion at 1 to 10 mg/kg, po administered for 30 mins and measured after 10 mins by open field test; format: organism-based; conditions: in vivo, 40 min, dose 1-10 mg/kg
[29] = Acute toxicity in Kunming mouse assessed as effect on spleen co-efficient at 1000 mg/kg, po administered as single dose and measured after 7 days; format: organism-based; conditions: in vivo, 168 h, time 7 day
[30] = Subacute toxicity in Kunming mouse assessed as pathological changes in kidney at 50 mg/kg, po administered every two days for 14 days by H and E staining based analysis; format: organism-based; conditions: in vivo, 336 h, time 14 day
[31] = Toxicity in male C57BL/6J mouse assessed as catalepsy performance at 30 mg/kg, ip measured after 30 to 60 mins by bar test; format: organism-based; conditions: in vivo, time 30-60 min
[32] = Tmax in Sprague-Dawley rat at 2 mg/kg, iv measured after 8 hrs by LC-MS/MS analysis; format: ADME, organism-based; conditions: in vivo
Mus musculus [33] = assay: Antipsychotic activity in MK-801 induced male C57BL/6J mouse model assessed as reduction in hyperlocomotion preadministered orally for 30 mins followed by MK801 administration for 30 mins and measured after 10 mins by open field test; format: functional, organism-based; conditions: dose 1-10 mg/kg, route po, time 70.0 min
[34] = Subacute toxicity in Kunming mouse assessed as pathological changes in liver at 50 mg/kg, po administered every two days for 14 days by H and E staining based analysis; format: organism-based; conditions: in vivo, 336 h, time 14 day
[35] = Half-life in Sprague-Dawley rat at 2 mg/kg, iv measured after 8 hrs by LC-MS/MS analysis; format: ADME, organism-based; conditions: in vivo
[36] = Acute toxicity in Kunming mouse assessed as abnormalities at 1000 mg/kg, po administered as single dose and measured after 7 days; format: organism-based; conditions: in vivo, 168 h, time 7 day
[37] = Acute toxicity in Kunming mouse assessed as effect on liver co-efficient at 1000 mg/kg, po administered as single dose and measured after 7 days; format: organism-based; conditions: in vivo, 168 h, time 7 day
[38] = Acute toxicity in Kunming mouse assessed as effect on lung co-efficient at 1000 mg/kg, po administered as single dose and measured after 7 days; format: organism-based; conditions: in vivo, 168 h, time 7 day
[39] = Aqueous solubility of compound at pH 2.0; format: physicochemical; conditions: aqueous solution
[40] = Metabolic stability in human liver microsomes assessed as half-life preincubated for 60 mins followed by NADPH addition and measured after 60 mins by LC-MS/MS analysis; format: ADME, Microsome; conditions: time 120 min
[41] = Subacute toxicity in Kunming mouse assessed as effect on spleen coefficient at 50 mg/kg, po administered every two days for 14 days; format: organism-based; conditions: in vivo, 336 h, time 14 day
[42] = AUC (0 to infinity) in Sprague-Dawley rat at 10 mg/kg, po measured after 8 hrs by LC-MS/MS analysis; format: ADME, organism-based; conditions: in vivo
[43] = Subacute toxicity in Kunming mouse assessed as pathological changes in heart at 50 mg/kg, po administered every two days for 14 days by H and E staining based analysis; format: organism-based; conditions: in vivo, 336 h, time 14 day
Mus musculus [44] = assay: Antipsychotic activity in MK-801 induced male C57BL/6J mouse model assessed as locomotion at 10 mg/kg, po preadministered for 30 mins followed by MK801 administration for 30 mins and measured after 10 mins by open field test (reference value: 8631.5 cm); format: functional; conditions: time 70 min, 1.167 h
[45] = Subacute toxicity in Kunming mouse assessed as effect on liver coefficient at 50 mg/kg, po administered every two days for 14 days; format: organism-based; conditions: in vivo, 336 h, time 14 day
[46] = Aqueous solubility of compound at pH 7.0; format: physicochemical; conditions: aqueous solution

EC50 [1]: 0.158 µM
SMILES: O=c1[nH]c2cc(S(=O)(=O)NC[C@@H]3CCCN3)ccc2o1

EC50 [1]: > 10 µM
EC50 [2]: > 10 µM
SMILES: O=[N+]([O-])c1ccccc1S(=O)(=O)NC[C@@H]1CCCN1

EC50 [1]: 0.0488 µM
SMILES: CNc1ncc(S(C)(=O)=O)c(C2CCCNC2)n1 (stereo not given)

EC50 [1]: > 10 µM
EC50 [2]: > 10 µM
SMILES: O=c1[nH]c2ccc(S(=O)(=O)NC[C@@H]3CCCN3)cc2[nH]1

EC50 [1]: > 10 µM
EC50 [2]: > 10 µM
SMILES: O=S(=O)(NC[C@@H]1CCCN1)c1ccc2c(c1)CCC2

EC50 [1]: > 10 µM
EC50 [2]: > 10 µM
SMILES: O=S(=O)(NC[C@@H]1CCCN1)c1ccc(O)cc1

SMILES: COc1cccc(S(=O)(=O)NC[C@@H]2CCCN2)c1.Cl
Activity [3]: Non-toxic
EC50 [1]: 0.0061 µM
EC50 [2]: 0.0148 µM
clearance [4]: 94.1 mL/min/kg
Activity [5]: Non-toxic
Activity [6]: Non-toxic
Activity [7]: Non-toxic
Activity [8]: Non-toxic
Cmax [9]: 746 ng/mL
Tmax [10]: 25.2 min
AUC(0-t) at 8 h [11]: 355 ng·h/mL
AUC(0-inf) [12]: 356 ng·h/mL
microsomal CLint [13]: 11 µL/min/mg
Activity_index (Mus musculus [14]): 0.48
Activity [15]: Non-toxic
Activity [16]: Non-toxic
solubility [17]: 43.3 mg/mL
Ratio EC50 [18]: 3.5
bioavailability [19]: 13.4%
half-life [20]: 91.8 min
Activity [21]: Non-toxic
Activity [22]: Non-toxic
AUC(0-t) at 8 h [23]: 229 ng·h/mL
Cmax [24]: 63.7 ng/mL
Activity [25]: Non-toxic
Activity [26]: Non-toxic
Activity [27]: Non-toxic
Activity [28]: Non-toxic
Activity [29]: Non-toxic
Activity [30]: Non-toxic
Activity [31]: Non-toxic
Tmax [32]: 1.8 min
Activity (Mus musculus [33]): Dose-dependent-effect
Activity [34]: Non-toxic
half-life [35]: 21 min
Activity [36]: Non-toxic
Activity [37]: Non-toxic
Activity [38]: Non-toxic
solubility [39]: 96.2 mg/mL
half-life [40]: 126 min
Activity [41]: Non-toxic
AUC(0-inf) [42]: 240 ng·h/mL
Activity [43]: Non-toxic
Activity (Mus musculus [44]): 3917.8 cm
Activity [45]: Non-toxic
solubility [46]: 65.7 mg/mL

EC50 [1]: > 10 µM
EC50 [2]: > 10 µM
SMILES: O=[N+]([O-])c1cccc(S(=O)(=O)NC[C@@H]2CCCN2)c1

EC50 [1]: > 10 µM
EC50 [2]: > 10 µM
SMILES: N#Cc1ccc(S(=O)(=O)NC[C@@H]2CCCN2)cc1
